Test system: M. tuberculosis H37Rv growth inhibition
Experiment: M. tuberculosis H37Rv growth inhibitors, H37Rv strain (AID 1626)
Conditions: for IC90: measured here: IC90 against H37Rv; for CC50: measured here: Vero cell cytotoxicity

Row | Structure (SMILES) | IC50 | IC90 | CC50
1 | COc1cc(CNCCc2c[nH]c3ccccc23)ccc1OCc1ccccc1F | 14 µM | 21.3 µM | 15.1 µM
2 | Cc1nc(N)nc(N)c1/C=C/C(C)(C)c1ccc(Cl)cc1 | 0.562 µM | 1.29 µM | < 0.078 µM
3 | Cn1c(O)c(C(=Nc2ccccc2)SCc2ccccc2Cl)c(=O)n(C)c1=O | 2.23 µM | 2.76 µM | 22.7 µM
4 | CCNc1nc(NC(C)(C)C)nc(N2CCCCC2)n1 | 16 µM | 29.5 µM | > 40 µM
5 | COc1ccccc1/C=C/C(=O)c1ccc(NC(C)=O)cc1 |  |  | 22.8 µM
6 | CN1CCN(c2nc(-c3ccccc3)nc(-c3ccc(F)cc3)c2C#N)CC1 | 23.9 µM | > 100 µM | > 40 µM
7 | O=C(NCc1ccco1)c1cnn2c1NC(c1ccc(Br)cc1)CC2C(F)(F)F (stereo not drawn) | 1.51 µM | 1.71 µM | > 40 µM
8 | O=C(NCCc1ccc(Cl)cc1)c1ccc(CNc2c(N3CCOCC3)c(=O)c2=O)cc1 | 2.85 µM | 3.19 µM | 
9 | O=C(COC(=O)/C=C/c1cccs1)Nc1ccc2ccccc2c1 | 90.8 µM | > 100 µM | 
10 | O=[N+]([O-])c1ccc(-c2nc(C(Cl)Cl)c3ccccc3n2)cc1 | < 0.195 µM | < 0.195 µM | < 0.078 µM
11 | COc1ccc(C(=O)CCNc2ccc(C)c(Cl)c2)cc1 | 58.9 µM | > 100 µM | 
12 | COC(=O)C(CC(C)C)NC(=O)/C=C/c1ccccc1Cl (stereo not drawn) | 4.67 µM | 7.81 µM | 
13 | Cc1ccc(C)c(-c2cc(C(=O)Nc3sc(C)c(C)c3C(N)=O)c3ccccc3n2)c1 |  |  | > 40 µM
14 | CC(C)(C)C(=O)COC(=O)c1cc2ccccc2cc1O | 2.73 µM | 16.5 µM | 
15 | Cc1cc(N)c2cc(NC(=O)/C=C/c3ccccc3Cl)ccc2n1 | 1.68 µM | 2.84 µM | 1.76 µM
16 | CCCCC(=O)c1ccc(O)cc1 | 15.2 µM | > 100 µM | 
17 | O=C(CCSc1nnc(-c2ccccc2)o1)N1CCOCC1 | 13 µM | 18 µM | 
18 | CCOC(=O)c1cnc(Nc2nc3ccccc3o2)nc1C | 20.4 µM | > 100 µM | 22.5 µM
19 | CCOC(=O)c1c(C)n(-c2ccc(C)cc2)c2ccc(OCC(O)CNCCCO)cc12 (stereo not drawn) | 20.3 µM | 37.1 µM | 13 µM
20 | O=C(Nc1nc(NC(=O)c2ccco2)n(-c2ccccc2)n1)c1ccccc1 | 2.65 µM | 6.79 µM | 8.86 µM

Row | Structure (SMILES) | IC50 | IC90 | CC50
21 | Cc1[nH]n(-c2ccccc2)c(=S)c1C=NCCCN=Cc1c(C)[nH]n(-c2ccccc2)c1=S | < 0.391 µM | > 100 µM | 
22 | CCOc1ccc(N2C(=O)c3ccccc3C2=O)cc1 |  | > 100 µM | 
23 | O=C(Nc1nc2ccc(F)cc2s1)c1ccccn1 | < 0.195 µM | 0.248 µM | 3.01 µM
24 | O=C(Nc1nc(-c2ccccn2)cs1)c1ncc(Cl)c(Cl)c1Cl | 1.45 µM | 5.3 µM | 31.7 µM
25 | Cc1ccc(-c2nc(C(Cl)Cl)c3ccccc3n2)cc1 | 4.4 µM | 12.1 µM | 0.923 µM
26 | Cc1cccc(/C=c2\s/c(=C\C(=O)C(C)(C)C)[nH]c2=O)c1 | 0.465 µM | 11.6 µM | 29 µM
27 | Cc1cc(C(=O)CCl)c(C)n1Cc1ccco1 | 3.34 µM | 8.28 µM | 12.1 µM
28 | O=C(Nc1nnc(-c2cccs2)o1)c1cccc(Oc2ccccc2)c1 | < 0.195 µM | 2.67 µM | 34 µM
29 | O=C(COc1ccc(Cl)cc1)Nc1ccc2c(c1)CCC2 | 12.6 µM | > 100 µM | 
30 | Cc1ccc(NCCC(=O)c2cccs2)cc1 | 24.8 µM | 32.7 µM | 
31 | CCOc1ccc(-c2nnc(SCC(=O)Nc3cc(C)on3)o2)cc1 | 1.63 µM | 1.95 µM | > 40 µM
32 | Cc1ccc(NC(=O)c2ccc([N+](=O)[O-])o2)c(C)c1 | 6.59 µM | 11.2 µM | 13.4 µM
33 | O=C1CC(/C=C/c2ccc(Cl)cc2)=Nc2ccccc2N1 | 6.69 µM | > 100 µM | 38.6 µM
34 | Brc1ccc(OCc2nc(-c3ccccn3)n[nH]2)cc1 |  |  | 10.6 µM
35 | Cc1cccc(NC(=O)c2nc[nH]c2C(=O)N[C@@H](CC(C)C)C(=O)OCc2ccccc2)c1 | 23 µM | > 100 µM | 39.1 µM
36 | Cc1cc(NC(=O)c2ccccc2)n(-c2nc3ccccc3[nH]2)n1 | 60.4 µM | > 100 µM | 27.9 µM
37 | O=C(/C=C/c1cccnc1)/C=C/c1cccnc1 | 0.909 µM | 1.33 µM | 3.09 µM
38 | FC(F)(F)c1ccc(CN2C[C@@H]3C(c4ccc(Cl)nc4)C4(c5cccnc5)CC3(C4)[C@H]2c2ccccc2)cc1 (stereo partly drawn) | 8.98 µM | 18 µM | > 40 µM
39 | COC(=O)CSc1ccc(C#N)c(SCC(=O)OC)c1 | 3.27 µM | 10.4 µM | 
40 | CCn1nnc(NC(=O)c2ccc(-c3ccc(Cl)cc3)o2)n1 | 19.8 µM | > 100 µM | 

Row | Structure (SMILES) | IC50 | IC90 | CC50
41 | O=C(Nc1nc(-c2ccc(F)cc2)cs1)c1cnccn1 |  | > 100 µM | > 40 µM
42 | CCOc1ccc(NC(=O)c2ccc(NC(=O)c3cn4c5c(c(N6CCN(C)CC6)c(F)cc5c3=O)OCC4C)cc2)cc1 (stereo not drawn) | 2.83 µM | 3.17 µM | > 40 µM
43 | CC(C)c1ccc(Nc2nnc(SCC(=O)Nc3ncc(S(=O)(=O)c4ccc([N+](=O)[O-])cc4)s3)s2)cc1 | 5.63 µM | 7.98 µM | 
44 | COc1cc(/C=C(\C#N)C(=O)NC2CCCCC2C)ccc1OS(=O)(=O)c1ccc(C)cc1 (stereo not drawn) |  | > 100 µM | 9.49 µM
45 | CCOC(=O)C(C(=O)OCC)C1N=C(N)N=C2Oc3ccccc3N21 (stereo not drawn) | 17.1 µM | 36.7 µM | 
46 | CC(C)N=c1cc2n(-c3ccc(Cl)cc3)c3ccccc3nc-2cc1Nc1ccc(Cl)cc1 | < 0.391 µM | < 0.391 µM | > 40 µM
47 | CCCc1cc(=O)[nH]c(SCC(=O)Nc2nc3ccc(OCC)cc3s2)n1 |  |  | > 40 µM
48 | CCCCCn1c(N2CCC(Cc3ccccc3)CC2)nc2c1c(=O)[nH]c(=O)n2C | 11.8 µM | 13.4 µM | 24.1 µM
49 | Cc1ccc(NC(=O)CNCc2ccccc2)cc1Br | 32.3 µM | > 100 µM | 
50 | COc1cccc(C(=O)/C=C/c2ccc(OCC#N)c(OC)c2)c1 | 19.8 µM | > 100 µM | 12.4 µM
51 | Cc1ccc(-n2nnnc2SC(C)C(=O)Nc2ccc(Cl)cn2)cc1 (stereo not drawn) | 16.5 µM | 29.1 µM | 26.7 µM
52 | CCOC(=O)C(Nc1ccc2ccccc2c1)C(=O)OCC | 1.04 µM | 2.86 µM | > 40 µM
53 | CCN1CCN(Cc2ccc(NC(=O)c3cc(NC(=O)c4cncc(-c5ccc(C#N)cc5)c4)cc(OC)c3)cc2C(F)(F)F)CC1 | 4.55 µM | 6.7 µM | 5.63 µM
54 | CCOc1ccc(N=CC2=C(O)CC(c3ccco3)CC2=O)cc1 (stereo not drawn) | 5.31 µM | > 100 µM | 
55 | CCCOC(=O)c1ccc(NC(=O)C(=O)NCCN(CC)CC)cc1 | 53.1 µM | > 100 µM | 
56 | O=C(COC(=O)/C=C/c1nc2ccccc2s1)Nc1cccc(Cl)c1Cl |  | > 100 µM | 
57 | N=C(N)SCc1cn(-c2ccccc2)nc1-c1ccc(Br)cc1 | 6.8 µM | 9.39 µM | 14.6 µM
58 | CCn1ccnc1CN(C)Cc1cn(-c2cccc(C)c2)nc1-c1cccc(F)c1 | 2.58 µM | 4.19 µM | > 40 µM

Reference: PubChem BioAssay AID1626 (SRMLSC, 2009)
